Columns and labels:
[1] = Acute toxicity (LD50) in mice, intravenous; details: mouse, in vivo, read-out: DL50 iv
Source text: Les composés de l'invention ont été administrés sous forme de chlorhydrate par voie intraveineuse à des souris de souche Charles River. Les doses létales 50 % (DL50) ont été déterminées graphiquement selon la méthode de Lichtfield et Wilcoxon (J. Pharmacol.Exp. Thérap. […]).

[2] = tested on: souris, de souche Charles River; assay: Hypobaric anoxia test in mice (survival time); format: in vivo; details: ratio of DL50/DE50 of the product to DL50/DE50 of vincamine; DE50 = dose raising mean survival time by 50 %; p.o. 30 min before test; 190 mm Hg (5,25 % oxygen)
Method: Des souris de même sexe, de souche Charles River, pesant environ 20 + 2 g sont réparties en trois lots de 10 animaux. Les lots 1 et 2 comportent les animaux traités, c'est à dire ayant reçu la substance à tester de l'invention. Un troisième lot comporte des animaux témoins.
Les composés étudiés sont administrés p.o. 30 minutes avant l'essai. Les animaux sont placés dans une atmosphère appauvrie en oxygène par réalisation d'un vide partiel (190 mm Hg, correspondant à 5,25 % d'oxygène), ces conditions étant obtenues en 30 secondes). On mesure le temps de survie des souris au moyen d'un chronomètre. Les agents capables de favoriser l'oxygénation tissulaire et en particulier cérébrale, entraînent un accroissement du temps de survie et l'on peut exprimer par la dose efficace 50 % (DE50), la dose qui augmente de 50 % le temps de survie moyen des animaux placés dans les conditions décrites ci-dessus.
L'indice vincaminique correspond au rapport de la ^DL50/D^E50 du produit à la DL5ODE50 de la vincamine. Le tableau suivant rassemble les doses léthales et les indices vincaminiques observés pour divers composés de la présente invention.

monoamine oxydase = assay: Monoamine oxidase inhibitor (IMAO) character, method not described
[3] = tested on: chien anesthésié au Nembutal; assay: Haemodynamics and cerebral oxygen consumption in the dog anaesthetised with Nembutal; format: in vivo
Source text: Chez le chien anesthésié au Nembutal, les composés de l'invention, en particulier Ib', augmentent les débits sanguins artériels des artères fémorales et vertébrales et stimulent de façon marquée (+ 50 %) la consommation apparente du cerveau en oxygène. L'effet sur la fréquence cardiaque est par ailleurs peu marqué, contrairement au cas de la vincamine.

[4] = tested on: ptose palpébrale induite par la réserpine; assay: Reserpine-induced palpebral ptosis test in mice; format: in vivo, souris; details: mouse
Source text: Le canthène Ib s'est en outre révélé très actif au test à la ptose palpébrale induite par la réserpine che la souris. […] La combinaison des propriétés antianoxiques et antidépressives confèrent aux composés de l'invention un intérêt thérapeutique original.

| Compound | LD50 [1] [mg/kg] | ind.vincam. hypobare [2] | caractéristique d'inhibiteur de monoamine oxydase (IMAO) (monoamine oxydase) | débits sanguins artériels des artères fémorales et vertébrales [3] | effet sur la fréquence cardiaque ([3]; stated in contrast to vincamine) | test à la ptose palpébrale induite par la réserpine [4] |
| --- | --- | --- | --- | --- | --- | --- |
| CCN1CCc2c3n(c4ccccc24)C(O)CCC31 (stereo not shown) [Exemple 2, Hydroxy-6 éthyl-3 1,2,3,3a,4,5 hexahydro 6H indolo (3, 2,1, -de) 1,5 naphtyridine] | 21 | 2 |  |  |  |  |
| CCN1CCc2c3n(c4ccccc24)CCCC31 (stereo not shown) [Exemple 4, Ethyl-3 hexahydro-1,2,3,3a,4,5-6H indolo (3,2,1-de) 1,5 naphtyridine] | 14 | 2 |  |  |  |  |
| CCN1CCc2c3n(c4ccccc24)C=CCC31 (stereo not shown) [Exemple 3, Ethyl-3 tétrahydro-1,2,3,3a 4H indolo (3,2,1-de) 1,5 naphtyridine] | 46 | 2 (Ib') | aucune caractéristique d'inhibiteur de monoamine oxydase | augmentent | peu marqué | très actif |

From patent EP0043811A1, “Indolo-naphthyridines and their use as medicaments” (OMNICHEM Société anonyme, priority 1980, dated 1982)
